Results on three molecules are retold here after patent US20120028888A1, “APJ RECEPTOR COMPOUNDS” (priority 2008, published 2012).

Test [1] addresses T1, Gi-coupled receptor APJ (HEK cells stably expressing the APJ receptor) (Homo sapiens, UniProt P35414).
T1 construct: expressed in transfected cells; host or cells: HEK cells stably expressing APJ
T1 sequence (P35414 1-380): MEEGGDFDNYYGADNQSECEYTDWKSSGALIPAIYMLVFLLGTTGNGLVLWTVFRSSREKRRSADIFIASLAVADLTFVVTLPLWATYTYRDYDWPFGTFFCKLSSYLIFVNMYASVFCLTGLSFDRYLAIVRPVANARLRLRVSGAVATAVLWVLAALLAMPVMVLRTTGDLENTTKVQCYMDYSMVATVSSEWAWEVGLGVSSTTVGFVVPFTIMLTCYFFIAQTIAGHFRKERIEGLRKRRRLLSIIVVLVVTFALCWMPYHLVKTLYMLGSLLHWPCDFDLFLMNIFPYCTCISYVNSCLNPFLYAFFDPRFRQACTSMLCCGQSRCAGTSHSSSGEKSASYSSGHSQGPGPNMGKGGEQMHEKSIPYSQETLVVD
Kind of test: HTRF cAMP assay: inhibition of NKH477 stimulated increase in cAMP. The following applies: read-out: EC50 value (nM), SEM. Format: cell-based. An excerpt:
HTRF (homogeneous time resolved fluorescence) is a technology developed by Cisbio Bioassays based on TR-FRET (time-resolved fluorescence resonance energy transfer). Cisbio Bioassays has developed a wide selection of HTRF-based assays compatible with whole cells, thereby enabling functional assays to run under more physiological conditions. The IP-One assays are competitive immunoassays using cryptate-labeled anti-IPI monoclonal antibody and d2-labeled IP1. IP1 is a relatively stable downstream metabolite of IP3, and accumulates in cells following Gq receptor activation.
cAMP kits based on a competitive immunoassay using cryptate-labeled anti-cAMP antibody and d2-labeled cAMP were used to assay the effects of APJ compounds of the present invention. This assay measures the increase in intracellular cAMP upon Gs-coupled receptor activation as well as decrease in forskolin (or a more soluble version of forskolin—NKH477) stimulated increase in cAMP upon Gi-coupled receptor activation.

Another test deals with mouse heart function. Kind of test: Langendorff heart preparation, developed pressure. The test is classed as ex vivo. The settings on record: isolated perfused mouse heart, 15 minutes. The method, then:
A pressure-sensing balloon catheter was inserted in the LV cavity to record changes in the developed pressure. Heart function was assessed by measuring standard parameters such as heart rate, mean peak systolic pressure, mean end diastolic pressure, developed pressure, dP/dt max, and dP/dt min.

For the next test, the target named is APJ receptor (Homo sapiens (Human), UniProt P35414). Kind of test: cell-based or functional assay.

Residues, ends and D or L forms follow the SMILES beside them. *: point of attachment. Palmitoyl = CCCCCCCCCCCCCCCC(=O)* Bounds are passed on as bounds.

In general, EC50 refers to the concentration that produces a half-maximal response.

As to `CCCCCCCCCCCCCCCC(=O)N[C@H](C(=O)N[C@H](C(=O)N[C@@H](Cc1ccccc1)C(=O)N[C@@H](CCCNC(=N)N)C(=O)N[C@@H](CO)C(=O)N[C@@H](CO)C(=O)N[C@@H](CCCNC(=N)N)C(=O)N[C@@H](CCC(=O)O)C(=O)N[C@@H](CCCCN)C(=O)N[C@@H](CCCNC(=N)N)C(=O)N[C@@H](CCCNC(=N)N)C(=O)N[C@@H](CO)C(=O)N[C@@H](C)C(=O)N[C@@H](CC(=O)O)C(=O)N[C@H](C(=O)N[C@@H](Cc1ccccc1)C(=O)N[C@H](C(N)=O)[C@@H](C)CC)[C@@H](C)CC)C(C)C)[C@@H](C)O` [Compound 12] (Palmitoyl-TVFRSSREKRRSADIFI-NH2), the half-maximal effective concentration (EC50) in test [1] was in the range of 1 to 500 nM. For the same molecule, the “effect on mouse heart function (developed pressure, inotropic effect)” value in the test on mouse heart function is reported as “demonstrates inotropic activity”.
On to apelin-13 [reference compound], for which the “effect on mouse heart function (developed pressure, inotropic effect)” value with mouse heart function is on record as “increase in developed pressure”.

B1: Compound 96 Pal-QTIAGHFRKERIEGLRKRRRLLA-Amide (peptide)
peptide: Palmitoyl-QTIAGHFRKERIEGLRKRRRLLA-NH2
SMILES: CCCCCCCCCCCCCCCC(=O)N[C@@H](CCC(N)=O)C(=O)N[C@H](C(=O)N[C@H](C(=O)N[C@@H](C)C(=O)NCC(=O)N[C@@H](Cc1c[nH]cn1)C(=O)N[C@@H](Cc1ccccc1)C(=O)N[C@@H](CCCNC(=N)N)C(=O)N[C@@H](CCCCN)C(=O)N[C@@H](CCC(=O)O)C(=O)N[C@@H](CCCNC(=N)N)C(=O)N[C@H](C(=O)N[C@@H](CCC(=O)O)C(=O)NCC(=O)N[C@@H](CC(C)C)C(=O)N[C@@H](CCCNC(=N)N)C(=O)N[C@@H](CCCCN)C(=O)N[C@@H](CCCNC(=N)N)C(=O)N[C@@H](CCCNC(=N)N)C(=O)N[C@@H](CCCNC(=N)N)C(=O)N[C@@H](CC(C)C)C(=O)N[C@@H](CC(C)C)C(=O)N[C@@H](C)C(N)=O)[C@@H](C)CC)[C@@H](C)CC)[C@@H](C)O
As for B1, the “EC50 value (nM), HTRF cAMP assay” value with APJ receptor was at most 500 nM.
